From the supplement of paper PMC5412046
Where a name gives a salt, the structure may show the parent alone.

What was measured:
SB.mhdgc-1 = test: AC50 for growth inhibition (viability) (log10 M); higher = less potent; conditions: SB.mhdgc-1 (hereditary c.1380delA CDH1 gastric cancer)
In short: (§1)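 Dosing used a pintool to add 23 nL compound in DMSO to 1536 wells, each with 500 hereditary or sporadic patient-derived gastric cancer cells, across 11 threefold dilutions starting at a final 46 μM. Viability after 48 h was measured by CellTiter-Glo luminescence on a ViewLux. The log half-maximal activity concentration derives from a four-parameter fit of that viability normalised to DMSO, limited to high-quality curve classes.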

SB.msgc-1 = test: as above; conditions: SB.msgc-1 (sporadic gastric cancer)
In short: as §1

Structure (SMILES)	AC50 for growth inhibition (log10 M) (SB.mhdgc-1)	AC50 for growth inhibition (log10 M) (SB.msgc-1)
Cc1c(C(=O)c2cccc3ccccc23)c2cccc3c2n1[C@H](CN1CCOCC1)CO3	-4.93	-5.08
C[C@@H]1C[C@@H]([C@H](O)CC2CC(=O)NC(=O)C2)C(=O)[C@@H](C)C1 [cycloheximide]	-6.73	-6.53
Clc1ccc(C2(c3ccc(-c4cn[nH]c4)cc3)CCNCC2)cc1 [AT-7867]	-4.88	-4.73
COc1cccc2c1C(=O)c1c(O)c3c(c(O)c1C2=O)C[C@@](O)(C(=O)CO)C[C@@H]3O[C@H]1C[C@H](N)[C@H](O)[C@H](C)O1 [Doxorubicin]	-7.33	-6.43
CC[S+](=O)([O-])N1CC(CC#N)(n2cc(-c3ncnc4[nH]ccc34)cn2)C1 [Baricitinib]	-4.88	-4.63
CC(C)N[C@@H]1CCn2c(=O)[nH]c3cccc(c32)[C@H]1O [Zilpaterol]	-5.33	-5.63
CC(C)c1cc(C(=O)N2Cc3ccc(CN4CCN(C)CC4)cc3C2)c(O)cc1O	-6.53	-6.78
C=CC(=O)Nc1cccc(Oc2nc(Nc3ccc(N4CCN(C)CC4)cc3OC)ncc2Cl)c1 [WZ-4002]	-4.83	-7.78
Cc1cn(-c2cc(NC(=O)c3ccc(C)c(Nc4nccc(-c5cccnc5)n4)c3)cc(C(F)(F)F)c2)cn1 [Nilotinib]	-5.18	-4.83
N[C@@H](Cc1ccc(N(CCCl)CCCl)cc1)C(=O)O [Melphalan]	-6.08	-5.83
C[S+](=O)([O-])N1CCc2c(-c3cnc(N)nc3)nc(N3CCOCC3)nc21	-5.68	-6.43
CC[C@@]1(O)C(=O)OCC/2=C1/C=C3\N(CC4=CC5=CC(=CC=C5N=C34)O)C2=O [10-hydroxycamptothecin]	-7.83	-7.33
CC(=O)Nc1ccc([C@H](C)C(=O)Nc2ncc(C(C)C)s2)cc1	-7.13	-5.88
CC(/C=C/C(=O)NO)=C\[C@@H](C)C(=O)c1ccc(N(C)C)cc1 [Trichostatin A]	-5.88	-6.13
FC1=C(C=C(C\C2=N\NC(=O)C3=C2C=CC=C3)C=C1)C(=O)N4CCN(CC4)C(=O)C5CC5 [Olaparib]	-5.48	-4.78
O=C(Nc1ccncc1)C(=O)c1cn(Cc2ccc(Cl)cc2)c2ccccc12 [Indibulin]	-6.28	-5.68
O=C(NCc1ccccc1)[C@H](Cc1ccccc1)NC(=O)[C@H]1O[C@@H]1C(=O)NCCc1ccc(O)cc1 [CAA0225]	-6.48	-6.08
COc1cc(C(=O)NC2CCN(C)CC2)ccc1Nc1ncc2c(n1)N(C1CCCC1)CCC(=O)N2C(C)C	-5.13	-4.73
Cc1c(C(=O)Nc2cccc(C(F)(F)F)c2)cc(-c2ccccc2)n1CCCN1CCOCC1	-4.78	-4.83
CNC(=O)c1ccc(Nc2cc(Nc3ccccc3[S+](=O)([O-])C(C)C)c3cc[nH]c3n2)nc1	-4.78	-4.68
Cc1cccc(Nc2nc(N[C@@H]3CCCC[C@@H]3N)ncc2C(N)=O)c1	-4.73	-4.63
COc1cc(C(=O)N2CCC(N3CCN(C)CC3)CC2)ccc1Nc1ncc2c(n1)N(C)c1ccccc1C(=O)N2C [LRRK2-IN-1]	-4.78	-4.83
CC(C)NCC(O)c1ccc(O)c(O)c1 (configuration not stated) [Isoprenaline hydrochloride]	-5.43	-4.83
O=C(Nc1cccc(Nc2ncc(Br)c(NCCc3cnc[nH]3)n2)c1)N1CCCC1 [BX-912]	-4.98	-4.78
Cc1ccc(NC(=O)C2(c3ccc4c(c3)OC(F)(F)O4)CC2)nc1-c1cccc(C(=O)O)c1 [Lumacaftor]	-6.73	-7.63
C[C@@]12C(=O)OC(=O)[C@@]1(C)C1CCC2O1 [Cantharidin]	-5.28	-5.53

Structure (SMILES)	AC50 for growth inhibition (log10 M) (SB.mhdgc-1)	AC50 for growth inhibition (log10 M) (SB.msgc-1)
CO[C@H]1/C=C\C=C(\C)C(=O)NC2=CC(=O)C(NCCN(C)C)=C(C[C@@H](C)C[C@H](OC)[C@H](O)[C@@H](C)/C=C(/C)[C@@H]1OC(N)=O)C2=O [Alvespimycin hydrochloride]	-7.38	-6.83
O=C(O)c1ccc2cc(-c3ccc(O)c(C45CC6CC(CC(C6)C4)C5)c3)ccc2c1 [AHPN]	-6.48	-4.83
CC(=O)SCC(Cc1ccccc1)C(=O)NCC(=O)OCc1ccccc1 (configuration not stated) [Racecadotril]	-6.68	-6.23
C[C@H]1O[C@H](C[C@H](O)[C@@H]1O)O[C@H]2[C@@H](O)C[C@@H](O[C@@H]2C)O[C@H]3[C@@H](O)C[C@@H](O[C@@H]3C)O[C@H]4CC[C@@]5(C)[C@H](CC[C@@H]6[C@@H]5C[C@@H](O)[C@]7(C)[C@H](CC[C@]67O)C/8=C/C(=O)OC8)C4 [Digoxin]	-6.62	-6.62
N#C/N=C(\NCCCCCCOc1ccc(Cl)cc1)Nc1ccncc1 [GMX-1778]	-8.08	-6.88
CCCC1=NC(=C2[N]1NC(=N\C2=O)/C3=CC(=CC=C3OCC)[S+]([O-])(=O)N4CCN(CC)CC4)C [Vardenafil]	-4.73	-4.83
COc1ccc(CCC(=O)c2c(O)cc(O[C@@H]3O[C@H](CO)[C@@H](O)[C@H](O)[C@H]3O[C@@H]3O[C@@H](C)[C@H](O)[C@@H](O)[C@H]3O)cc2O)cc1O [Neohesperidin dihydrochalcone]	-5.28	-5.18
COC1=CC(=CC(=C1)C2=CC=C3N=CC\4=C(N(C(=O)\C=C4)C5=CC(=C(C=C5)N6CCNCC6)C(F)(F)F)C3=C2)OC	-5.33	-5.43
CC1=C(C=CC=C1)N2\C(=N/C3=C(C(=CC=C3)C)C2=O)C[N]4N=CC5=C4N=CN=C5N [PIK-293]	-6.73	-7.08
C/C=C1\NC(=O)[C@H]2CSSCC/C=C\[C@H](CC(=O)N[C@H](C(C)C)C(=O)N2)OC(=O)[C@H](C(C)C)NC1=O [Romidepsin]	-7.63	-7.83
C[S+](=O)([O-])Oc1ccc2c(NC(N)=O)c(C(=O)c3ccc(Cl)cc3Cl)oc2c1 [Lirimilast]	-6.08	-5.53
CCCCN1CCC(CNC(=O)c2c3n(c4ccccc24)CCCO3)CC1 [Piboserod hydrochloride]	-5.53	-5.53
N#C[C@H](O[C@@H]1O[C@H](CO[C@@H]2O[C@H](CO)[C@@H](O)[C@H](O)[C@H]2O)[C@@H](O)[C@H](O)[C@H]1O)c1ccccc1 [Amygdalin]	-4.73	-4.68
NC(=O)Nc1sc(-c2ccc(F)cc2)cc1C(N)=O [TPCA-1]	-5.93	-5.48
CCOC(=O)[C@H](CCc1ccccc1)N[C@@H](C)C(=O)N1[C@H](C(=O)O)C[C@@H]2CCC[C@@H]21 [Ramipril]	-5.18	-4.73
CCOC(=O)N1CCN(/[N+]([O-])=N/Oc2ccc([N+](=O)[O-])cc2[N+](=O)[O-])CC1	-5.23	-4.88
CC(=O)N1CCN(c2ccc(OCc3nn(C)c(C)c3-c3cccc4c(CCCOc5cccc6ccccc56)c(C(=O)O)n(Cc5cccnc5)c34)cc2)CC1	-5.63	-5.63
Cc1[nH]c(/C=C2\C(=O)Nc3ccccc32)c(C)c1CCC(=O)O [Orantinib]	-6.48	-5.13
Cc1c(C(=O)NN2CCCCC2)nn(-c2ccc(Cl)cc2Cl)c1-c1ccc(Cl)cc1 [Rimonabant]	-4.78	-4.63
Clc1cc(Cl)cc(CNc2ncncc2-c2ccc3c(c2)OCO3)c1	-5.28	-4.78
C=CC(=O)Nc1cc2c(Nc3ccc(F)c(Cl)c3)ncnc2cc1OCCCN1CCOCC1 [Canertinib]	-4.73	-5.18
c1cc(-c2cnn3cc(-c4ccc(OCCN5CCCCC5)cc4)cnc23)ccn1 [Dorsomorphin]	-4.83	-4.78
COc1ccc(-c2ccc3c(N4CCOC[C@@H]4C)nc(N4CCOC[C@@H]4C)nc3n2)cc1CO [AZD-8055]	-7.83	-5.98
O=[S+]([O-])(O)c1ccc2cc(/N=N/c3cc([S+](=O)([O-])O)c4cccnc4c3O)ccc2c1	-4.68	-4.93
CN(C)CC(=O)N1CCC(CC1)C2=CC=C(NC(=O)C3=NC(=C[NH]3)C#N)C(=C2)\C4=C\CCCC4	-6.28	-5.23
